# Source: patent publication US20150141340A1, “METHOD OF TREATING AND PREVENTING OCULAR ANGIOGENESIS” (Yale University, priority 2012, published 2015)
# What was measured:
# [1] = test system: choroidal neovascularization (CNV); assay: Laser-induced choroidal neovascularization (CNV) model, isolectin b4 labeling; assay type: in vivo, mice
# Text: Experiments were designed to examine whether treatment with cavtratin is useful in disease models of excessive ocular angiogenesis. To induce choroidal neovascularization (CNV), a model for retinal angiogenesis in mice, three 532 nm diode laser spots were applied to each fundus of the eye using a coverslip as a contact lens. The lesions were placed between the retinal vessels 2-3 disc diameters from the optic nerve. Formation of a bubble indicates rupture of the Bruch's membrane, a critical factor in driving CNV. Cavtratin was dissolved into acetic acid and diluted into saline. […] After treatment and injury, CNV was visualized by immunofluorescent labeling with isolectin b4, a marker for angiogenic blood vessels. CNV area was quantified as isolectin positive vessels per area measured.
# Since mechanistically cavtratin reduces vascular permeability, vascular leakage was examined after CNV damage.
# Further, it was examined whether the effects of cavtratin treatment synergizes with anti-VEGF. Mice were injected with either cavtratin (0.05 nmol) one day prior to laser damage, anti-VEGF (5 μg) 2 days after damage, or were treated with both cavtratin and anti-VEGF.
# [2] = test system: ischemia triggered neovascularization; assay: Retinopathy of prematurity model (ROP); assay type: in vivo, mouse; details: administration 2 days after switching from hyperoxia to room air; vs AP injected eyes
# Procedure: Next, cavtratin was tested in an additional model of ocular angiogenesis, retinopathy of prematurity model (ROP). Exposure to hyperoxia during early retinal development leads to the arrest or retardation of normal retinal vascular development. When the animals are returned to the normoxic environment, they are under a relative hypoxic situation where the retina now lacks its normal vasculature that is required to adequately support the neural tissue in normoxic conditions. This ischemic situation results in unregulated, abnormal neovascularization. The neovascular response is very consistent, reproducible and quantifiable, and it has become integral model for studying disease mechanisms and potential treatments for ischemic retinopathy. The mouse ROP model has become the most common model for studying pathologic angiogenesis and has been extended to the general study of ischemic retinopathies and related anti-angiogenic treatments. […] Cavtratin induced attenuation of ischemia triggered neovascularization is shown in FIG. 8, where the left panels are representative of two AP injected eyes and right panels are from cavtratin injections.
substance,measurement,setting,value
cavtratin: fusion peptide comprising an antennapedia homeodomain internalization sequence fused to a caveolin-1 scaffolding domain; SEQ ID NO: 13 (RQIKIWFQNRRMKWKKDGIWKASFTTFTVTKYWFYR; Antennapedia-caveolin-1 scaffolding domain fusion peptide),CNV area (isolectin positive vessels per area measured),"[1]; 0.5 nmol intraocular (1 microliter) prior to laser damage and again 2 days after, sacrificed after 4 additional days, vs AP control, N=17-18 eyes, P<0.05",reduced CNV
same,"CNV, dose dependence","[1]; anti-VEGF administration as comparator (FIG. 3, FIG. 4), reduced to a level comparable to anti-VEGF",dose-dependently reduces CNV
same,ischemia triggered neovascularization,[2],"attenuation of extensive, ischemia triggered neovascualization"
